{"source": "patent US9458137B2", "about": "“Substituted indol-5-ol derivatives and their therapeutical applications” (NantBioScience, Inc., priority 2012, dated 2016)", "tested_on": "abl kinase", "assay": "abl kinase inhibition assay", "type": "biochemical", "data": [{"smiles": "CCC1CN(c2cc(Nc3cc(C4CC4)[nH]n3)nc(Oc3ccc4[nH]c(C)cc4c3F)n2)CCN1", "note": "(centres unmarked) [Example 41]", "values": [{"measurement": "% Inhibition @1 μM Abl", "result": 108, "unit": "%"}]}, {"smiles": "COCC1CCN(c2cc(Nc3cc(C4CC4)[nH]n3)nc(Oc3ccc4[nH]c(C)cc4c3F)n2)C1", "note": "(centres unmarked) [Example 44]", "values": [{"measurement": "% Inhibition @1 μM Abl", "result": 94, "unit": "%"}]}, {"smiles": "Cc1cc2c(F)c(Oc3nc(Nc4cc(C5CC5)[nH]n4)cc(N4CCNCC4)n3)cc(F)c2[nH]1", "note": "[Example 82]", "values": [{"measurement": "% Inhibition @1 μM Abl", "result": 106, "unit": "%"}]}, {"smiles": "Cc1cc2c(F)c(Oc3nc(Nc4cc(C5CC5)[nH]n4)cc(N4CCN(C)CC4)n3)ccc2[nH]1", "note": "[Example 10]", "values": [{"measurement": "% Inhibition @1 μM Abl", "result": 112, "unit": "%"}]}, {"smiles": "C/C=C/c1cc(Nc2cc(N3CCOCC3)nc(Oc3ccc4c(cc(C)n4C)c3F)n2)n[nH]1", "note": "[Example 121]", "values": [{"measurement": "% Inhibition @1 μM Abl", "result": 116, "unit": "%"}]}, {"smiles": "Cc1cc2c(F)c(Oc3nc(Nc4cc(C5CC5)[nH]n4)cc(N4CCOCC4)n3)ccc2n1C", "note": "[Example 123]", "values": [{"measurement": "% Inhibition @1 μM Abl", "result": 114, "unit": "%"}]}, {"smiles": "Cc1cc2c(F)c(Oc3nc(Nc4cc(C5CC5)[nH]n4)cc(N4CCN(c5ccccn5)CC4)n3)ccc2[nH]1", "note": "[Example 25]", "values": [{"measurement": "% Inhibition @1 μM Abl", "result": 108, "unit": "%"}]}, {"smiles": "CCN1CCN(c2cc(Nc3cc(C)[nH]n3)nc(Oc3cc(F)c4[nH]c(C)cc4c3F)n2)CC1", "note": "[Example 103]", "values": [{"measurement": "% Inhibition @1 μM Abl", "result": 113, "unit": "%"}]}, {"smiles": "CCN1CCN(c2cc(Nc3cc(C4CC4)[nH]n3)nc(Oc3ccc4[nH]c(C)cc4c3F)n2)CC1", "note": "[Example 31]", "values": [{"measurement": "% Inhibition @1 μM Abl", "result": 115, "unit": "%"}]}, {"smiles": "C/C=C/c1cc(Nc2cc(N3CCN(C(C)=O)CC3)nc(Oc3ccc4[nH]c(C)cc4c3F)n2)n[nH]1", "note": "[Example 56]", "values": [{"measurement": "% Inhibition @1 μM Abl", "result": 111, "unit": "%"}]}, {"smiles": "C/C=C/c1cc(Nc2cc(N3CCNCC3)nc(Oc3ccc4[nH]c(C)cc4c3F)n2)n[nH]1", "note": "[Example 68]", "values": [{"measurement": "% Inhibition @1 μM Abl", "result": 107, "unit": "%"}]}, {"smiles": "Cc1cc2c(F)c(Oc3nc(Nc4cc(C5CC5)[nH]n4)cc(N4CCN(C)CC4)n3)cc(F)c2[nH]1", "note": "[Example 81]", "values": [{"measurement": "% Inhibition @1 μM Abl", "result": 110, "unit": "%"}]}, {"smiles": "Cc1cc2c(F)c(Oc3nc(Nc4cc(C5CC5)[nH]n4)cc(N4CCN(c5cccnc5)CC4)n3)ccc2[nH]1", "note": "[Example 26]", "values": [{"measurement": "% Inhibition @1 μM Abl", "result": 109, "unit": "%"}]}, {"smiles": "Cc1cc2c(F)c(Oc3nc(Nc4cc(C5CC5)[nH]n4)cc(N4CCN(CCO)CC4)n3)cc(F)c2[nH]1", "note": "[Example 83]", "values": [{"measurement": "% Inhibition @1 μM Abl", "result": 110, "unit": "%"}]}, {"smiles": "Cc1cc2c(F)c(Oc3nc(Nc4cc(C5CC5)[nH]n4)cc(N4CCOCC4)n3)cc(F)c2[nH]1", "note": "[Example 84]", "values": [{"measurement": "% Inhibition @1 μM Abl", "result": 103, "unit": "%"}]}, {"smiles": "Cc1cc(Nc2cc(N3CCOCC3)nc(Oc3cc(F)c4[nH]c(C)cc4c3F)n2)n[nH]1", "note": "[Example 107]", "values": [{"measurement": "% Inhibition @1 μM Abl", "result": 111, "unit": "%"}]}, {"smiles": "Cc1cc2c(F)c(Oc3nc(Nc4cc(C5CC5)[nH]n4)cc(N4CCN(c5ccncc5)CC4)n3)ccc2[nH]1", "note": "[Example 27]", "values": [{"measurement": "% Inhibition @1 μM Abl", "result": 108, "unit": "%"}]}, {"smiles": "C/C=C/c1cc(Nc2cc(N3CCN(CC)CC3)nc(Oc3cc(F)c4[nH]c(C)cc4c3F)n2)n[nH]1", "note": "[Example 99]", "values": [{"measurement": "% Inhibition @1 μM Abl", "result": 113, "unit": "%"}]}, {"smiles": "Cc1cc2c(F)c(Oc3nc(Nc4cc(C5CC5)[nH]n4)cc(N4CCN(CCN(C)C)CC4)n3)ccc2[nH]1", "note": "[Example 42]", "values": [{"measurement": "% Inhibition @1 μM Abl", "result": 110, "unit": "%"}]}, {"smiles": "Cc1cc2c(F)c(Oc3nc(Nc4cc(C5CC5)[nH]n4)cc(N4CCNC(CO)C4)n3)ccc2[nH]1", "note": "(centres unmarked) [Example 43]", "values": [{"measurement": "% Inhibition @1 μM Abl", "result": 111, "unit": "%"}]}, {"smiles": "C/C=C/c1cc(Nc2cc(N3CCC(O)C3)nc(Oc3cc(F)c4[nH]c(C)cc4c3F)n2)n[nH]1", "note": "(centres unmarked) [Example 92]", "values": [{"measurement": "% Inhibition @1 μM Abl", "result": 111, "unit": "%"}]}, {"smiles": "Cc1cc2c(F)c(Oc3nc(Nc4cc(C5CC5)[nH]n4)cc(N4CCOC(CN(C)C)C4)n3)ccc2[nH]1", "note": "(centres unmarked) [Example 30]", "values": [{"measurement": "% Inhibition @1 μM Abl", "result": 110, "unit": "%"}]}, {"smiles": "C/C=C/c1cc(Nc2cc(N3CCN(C)CC3)nc(Oc3ccc4[nH]c(C)cc4c3F)n2)n[nH]1", "note": "[Example 53]", "values": [{"measurement": "% Inhibition @1 μM Abl", "result": 109, "unit": "%"}]}, {"smiles": "C/C=C/c1cc(Nc2cc(N3CCOCC3)nc(Oc3ccc4[nH]c(C)cc4c3F)n2)n[nH]1", "note": "[Example 67]", "values": [{"measurement": "% Inhibition @1 μM Abl", "result": 112, "unit": "%"}]}, {"smiles": "C/C=C/c1cc(Nc2cc(N3CCNCC3)nc(Oc3cc(F)c4[nH]c(C)cc4c3F)n2)n[nH]1", "note": "[Example 90]", "values": [{"measurement": "% Inhibition @1 μM Abl", "result": 112, "unit": "%"}]}, {"smiles": "COC1CCN(c2cc(Nc3cc(C4CC4)[nH]n3)nc(Oc3ccc4[nH]c(C)cc4c3F)n2)C1", "note": "(centres unmarked) [Example 16]", "values": [{"measurement": "% Inhibition @1 μM Abl", "result": 103, "unit": "%"}]}, {"smiles": "Cc1cc2c(F)c(Oc3nc(Nc4cc(C5CC5)[nH]n4)cc(N4CCN(S(C)(=O)=O)CC4)n3)ccc2[nH]1", "note": "[Example 23]", "values": [{"measurement": "% Inhibition @1 μM Abl", "result": 108, "unit": "%"}]}, {"smiles": "Cc1cc2c(F)c(Oc3nc(Nc4cc(C5CC5)[nH]n4)cc(N4CCN(CCF)CC4)n3)ccc2[nH]1", "note": "[Example 45]", "values": [{"measurement": "% Inhibition @1 μM Abl", "result": 107, "unit": "%"}]}, {"smiles": "C/C=C/c1cc(Nc2cc(N3CCN(CCO)CC3)nc(Oc3cc(F)c4[nH]c(C)cc4c3F)n2)n[nH]1", "note": "[Example 88]", "values": [{"measurement": "% Inhibition @1 μM Abl", "result": 113, "unit": "%"}]}, {"smiles": "C/C=C/c1cc(Nc2cc(N3CCOCC3)nc(Oc3cc(F)c4[nH]c(C)cc4c3F)n2)n[nH]1", "note": "[Example 89]", "values": [{"measurement": "% Inhibition @1 μM Abl", "result": 112, "unit": "%"}]}, {"smiles": "C/C=C/c1cc(Nc2cc(N3CCC(OC)C3)nc(Oc3ccc4[nH]c(C)cc4c3F)n2)n[nH]1", "note": "(centres unmarked) [Example 60]", "values": [{"measurement": "% Inhibition @1 μM Abl", "result": 111, "unit": "%"}]}, {"smiles": "Cc1cc2c(F)c(Oc3nc(Nc4cc(C5CC5)[nH]n4)cc(N4CCC(N(C)C)C4)n3)ccc2[nH]1", "note": "(centres unmarked) [Example 17]", "values": [{"measurement": "% Inhibition @1 μM Abl", "result": 108, "unit": "%"}]}, {"smiles": "C/C=C/c1cc(Nc2cc(N3CCN(C)CC3)nc(Oc3ccc4c(cc(C)n4C)c3F)n2)n[nH]1", "note": "[Example 120]", "values": [{"measurement": "% Inhibition @1 μM Abl", "result": 115, "unit": "%"}]}, {"smiles": "Cc1cc2c(F)c(Oc3nc(Nc4cc(C5CC5)[nH]n4)cc(N4CCOC(CN)C4)n3)ccc2[nH]1", "note": "(centres unmarked) [Example 39]", "values": [{"measurement": "% Inhibition @1 μM Abl", "result": 110, "unit": "%"}]}, {"smiles": "Cc1cc2c(F)c(Oc3nc(Nc4cc(C5CC5)[nH]n4)cc(N4CCN(C)CC4)n3)ccc2n1C", "note": "[Example 122]", "values": [{"measurement": "% Inhibition @1 μM Abl", "result": 109, "unit": "%"}]}, {"smiles": "C/C=C/c1cc(Nc2cc(N3CCN(CCF)CC3)nc(Oc3ccc4[nH]c(C)cc4c3F)n2)n[nH]1", "note": "[Example 74]", "values": [{"measurement": "% Inhibition @1 μM Abl", "result": 111, "unit": "%"}]}, {"smiles": "C/C=C/c1cc(Nc2cc(N3CCN(CCOC)CC3)nc(Oc3ccc4[nH]c(C)cc4c3F)n2)n[nH]1", "note": "[Example 54]", "values": [{"measurement": "% Inhibition @1 μM Abl", "result": 108, "unit": "%"}]}, {"smiles": "Cc1cc2c(F)c(Oc3nc(Nc4cc(C5CC5)[nH]n4)cc(N4CCNC(=O)C4)n3)ccc2[nH]1", "note": "[Example 19]", "values": [{"measurement": "% Inhibition @1 μM Abl", "result": 108, "unit": "%"}]}, {"smiles": "CC(=O)N1CCN(c2cc(Nc3cc(C4CC4)[nH]n3)nc(Oc3ccc4[nH]c(C)cc4c3F)n2)CC1", "note": "[Example 18]", "values": [{"measurement": "% Inhibition @1 μM Abl", "result": 107, "unit": "%"}]}, {"smiles": "C/C=C/c1cc(Nc2cc(N3CCC(O)C3)nc(Oc3ccc4[nH]c(C)cc4c3F)n2)n[nH]1", "note": "(centres unmarked) [Example 61]", "values": [{"measurement": "% Inhibition @1 μM Abl", "result": 112, "unit": "%"}]}, {"smiles": "Cc1cc2c(F)c(Oc3nc(Nc4cc(C5CC5)[nH]n4)cc(N4CC(O)C4)n3)ccc2[nH]1", "note": "[Example 15]", "values": [{"measurement": "% Inhibition @1 μM Abl", "result": 108, "unit": "%"}]}, {"smiles": "Cc1cc(Nc2cc(N3CCNCC3)nc(Oc3cc(F)c4[nH]c(C)cc4c3F)n2)n[nH]1", "note": "[Example 106]", "values": [{"measurement": "% Inhibition @1 μM Abl", "result": 109, "unit": "%"}]}, {"smiles": "C/C=C/c1cc(Nc2cc(N3CCC(OC)C3)nc(Oc3cc(F)c4[nH]c(C)cc4c3F)n2)n[nH]1", "note": "(centres unmarked) [Example 93]", "values": [{"measurement": "% Inhibition @1 μM Abl", "result": 111, "unit": "%"}]}, {"smiles": "C/C=C/c1cc(Nc2cc(N3CCN(C)CC3)nc(Oc3cc(F)c4[nH]c(C)cc4c3F)n2)n[nH]1", "note": "[Example 87]", "values": [{"measurement": "% Inhibition @1 μM Abl", "result": 112, "unit": "%"}]}]}
